{"source": "patent US4008267A", "about": "“3,3'-Di(sulfonyloxy-group-containing)substituted benzidine derivatives” (AB Kabi, priority 1974, dated 1977)", "key": {"[1]": {"assay": "Stability of isolated product in air", "type": "physicochemical", "settings": "greyish crystal powder", "procedure": "d. 10 gm. of this 8,8'-bis(2-oxo-1,2,3,4,5,6-hexahydro-1-benzazocine) are refluxed for 12 hours with 200 ml. of concentrated hydrochloric acid. The solution is evaporated to a small volume, diluted with water, following which the pH is adjusted to 5 to 6 by adding concentrated sodium acetate solution."}, "[2]": {"assay": "Light stability: extinction decrease after irradiation of the oxidized chromogen", "type": "physicochemical", "method": "In connection with this composition portion of the invention, laboratory tests were conducted by a standard method for evaluating different chromogens."}, "[3]": {"assay": "Absorption wave length of the oxidized chromogen", "type": "physicochemical"}, "[4]": {"settings": "background, cited from earlier work"}, "[5]": {"settings": "background, cited from earlier work", "remark": "listed apart in the source"}, "[6]": {"assay": "Solubility of the chromogens in water / at pH 7, reduced and oxidized state", "settings": "for solubility: pH 7, water"}, "[7]": {"assay": "Color development of chromogen-reactive-indicator composition with glucose stock solutions (glucose oxidase/peroxidase)", "settings": "0.2 mM chromogen in reagent composition", "method": "Glucose was used as the control or test substance to be tested for in these tests.\n______________________________________\nChromogen used 0.2 mM (i.e. millimolar),\nglucose oxidase 3000 units,\nStock or test solutions were prepared containing glucose in concentrations of 25, 50, 100, 200, 300, and 400 mg. per 100 ml.\nBefore the final determination, this thus diluted solution is diluted further 1 part to 11 with the just described chromogen reagent solution. Thereafter the development of color is measured at 450 mm.\nWhen this particular dilution pattern is applied to the foregoing stock or test stem solutions, finally diluted solutions with the following respective glucose contents are obtained: 2.2, 4.3, 8.6, 13.0, and 17.3 mg. per liter."}, "[8]": {"assay": "Color stability at extinction maximum", "type": "physicochemical", "settings": "0.2 mM chromogen; 4 hours the longest period observed"}, "[9]": {"settings": "450 nm (o-tolidine 430 nm), pH value 6.5"}, "[10]": {"settings": "Solubility at pH 7, oxidized (colored), pH 7, oxidized state"}, "[11]": {"settings": "Solubility at pH 7, reduced (uncolored), pH 7, reduced state"}}, "data": [{"smiles": "Nc1ccc(-c2ccc(N)c(CCCCC(=O)O)c2)cc1CCCCC(=O)O", "note": "[Example 6, Delta,delta'-(4,4'-diamino-3,3'-biphenyl)divaleric acid]", "values": [{"measurement": "Discoloration in the air", "setting": "[1]", "result": "readily discolors in the air"}]}, {"smiles": "Cc1cc(-c2ccc(N)c(C)c2)ccc1N", "note": "[o-tolidine]", "values": [{"measurement": "Extinction decrease % after irradiation 5 min. under 10 Watt tungsten lamp", "setting": "[2]; [9]", "result": 1, "unit": "%"}, {"measurement": "Extinction decrease % after irradiation 5 min. under 10 Watt tungsten lamp", "setting": "[2]; 630 nm, pH value 4.5", "result": "unstable"}, {"measurement": "Wave length range in nm", "setting": "[3]; pH value 4.5", "result": 630, "unit": "nm"}, {"measurement": "Wave length range in nm", "setting": "[3]; pH value 6.5", "result": 430, "unit": "nm"}, {"measurement": "Light absorption wave length in oxidized state", "setting": "[4]", "result": "about 450 nm"}, {"measurement": "Absorption of temporarily appearing color", "setting": "[4]; temporarily appearing color", "result": "about 630 nm"}, {"measurement": "Sensitivity of color to pH and temperature", "setting": "[5]; temporarily appearing color at about 630 nm", "result": "very sensitive to variations in pH and temperature"}, {"measurement": "solubility", "setting": "[6]; [10]", "result": 7, "unit": "µg/mL"}, {"measurement": "solubility", "setting": "[6]; [11]", "result": 130, "unit": "µg/mL"}]}, {"smiles": "Nc1ccc(-c2ccc(N)c(OCCCS(=O)(=O)O)c2)cc1OCCCS(=O)(=O)O", "note": "[Example 3(b), Gamma,gamma'-(4,4'-diamino-3,3'-biphenyldioxy)dipropane sulfonic acid]", "values": [{"measurement": "Precipitation of chromogen", "setting": "[7]", "result": "no precipitation of it occurs"}, {"measurement": "Extinction decrease % after irradiation 5 min. under 10 Watt tungsten lamp", "setting": "[2]; [9]", "result": 2, "unit": "%"}, {"measurement": "Color stability at extinction maximum, optional reading time", "setting": "[8]", "result": "up to 4 hours"}, {"measurement": "Wave length range in nm", "setting": "[3]; pH value 6.5", "result": 450, "unit": "nm"}, {"measurement": "Solubility in water (in words)", "setting": "[6]", "result": "quite good"}, {"measurement": "solubility", "setting": "[6]; [10]", "result": 120, "unit": "µg/mL"}, {"measurement": "solubility", "setting": "[6]; [11]", "result": 12000, "unit": "µg/mL"}]}, {"smiles": "Cl.Cl.Nc1ccc(-c2ccc(N)c(OCCCC(=O)O)c2)cc1OCCCC(=O)O", "note": "[Example 1(d), Gamma, gamma'-(4,4'-diamino-3,3'-biphenyldioxy)dibutyric acid dihydrochloride]", "values": [{"measurement": "Precipitation of chromogen", "setting": "[7]", "result": "no precipitation of chromogen occurred"}, {"measurement": "Extinction decrease % after irradiation 5 min. under 10 Watt tungsten lamp", "setting": "[2]; [9]", "result": 2, "unit": "%"}, {"measurement": "Color stability at extinction maximum, optional reading time", "setting": "[8]", "result": "up to 4 hours"}, {"measurement": "Wave length range in nm", "setting": "[3]; pH value 6.5", "result": 450, "unit": "nm"}, {"measurement": "Solubility in water (in words)", "setting": "[6]", "result": "very good"}, {"measurement": "solubility", "setting": "[6]; [10]", "result": 700, "unit": "µg/mL"}, {"measurement": "solubility", "setting": "[6]; [11]", "result": 70000, "unit": "µg/mL"}]}, {"smiles": "COc1cc(-c2ccc(N)c(OC)c2)ccc1N", "note": "[o-dianisidine]", "values": [{"measurement": "Extinction decrease % after irradiation 5 min. under 10 Watt tungsten lamp", "setting": "[2]; [9]", "result": 26, "unit": "%"}, {"measurement": "Wave length range in nm", "setting": "[3]; pH value 6.5", "result": 450, "unit": "nm"}, {"measurement": "Light absorption wave length in oxidized state", "setting": "[4]", "result": "about 450 nm"}, {"measurement": "Decline of extinction when exposed to light", "setting": "[5]; oxidized, exposed to light", "result": "up to 25 per cent"}, {"measurement": "Sensitivity of color to light", "setting": "[5]; oxidized", "result": "sensitive to light"}, {"measurement": "solubility", "setting": "[6]; [10]", "result": 10, "unit": "µg/mL"}, {"measurement": "solubility", "setting": "[6]; [11]", "result": 110, "unit": "µg/mL"}]}]}
